Results on 3 compounds are retold here after US11951131B2, “Anti-SLAMF7 chimeric antigen receptors” (The United States of America, as represented by the …, priority 2018, dated 2024).

Test [1] relates to IC9-Luc90-CD828Z CAR T cells. Nature of the test: AP1903 abrogation of CAR T-cell activity in MM.1S tumor-bearing mice. It counts as in vivo, NSG mice. As for the experimental part: (§1) First, MM.1S human SLAMF7^+ multiple myeloma cell line tumors were established in immunodeficient mice. In this model, the MM.1S cells formed a solid cutaneous mass. Measurable tumors were allowed to develop over 7 days, and then the mice were treated with a single intravenous infusion of MSGV1-IC9-Luc90-CD828Z-transduced human T cells. NSG mice (NOD.Cg-Prkdc^scid Il2rg^tm1Wjl/SzJ) from The Jackson Laboratory, Bar Harbor, Me., were used. Mice received intradermal injections of 4×10^6 MM.1S cells. The cells were suspended in a 1:1 mixture of MATRIGEL™ gelatinous protein mixture (BD Biosciences) and PBS (Phosphate-buffered saline) for injection. Tumors were allowed to grow for 7 days, and then each mouse received a single intravenous infusion of human T cells that were transduced with one of 3 CARs: IC9-Luc90-CD828Z (suicide gene+anti-SLAMF7 CAR), Luc90-CD828Z (anti-SLAMF7 CAR alone), or a negative-control anti-CD19 CAR Hu19-CD828Z. A 4th group was left untreated. All groups included 5 mice. After CAR T-cell infusion, the tumors were measured with calipers every 3 days. The longest length and the length perpendicular to the longest length and the tumor thickness were multiplied together to obtain the tumor volume in mm^3. When the longest length reached 15 mm, mice were sacrificed. Animal studies were approved by the National Cancer Institute Animal Care and Use Committee.
MM.1S tumors were established in NSG mice as described in Example 9. The mice were treated with 2×10^6 IC9-Luc90-CD828Z T cells. The mice received 5 mg/kg of AP1903 intraeritoneally for either 3 days or 12 days after the CAR T-cell infusion. […] Also levels of IC9-Luc90-CD828Z CART cells in the mice receiving AP1903 were reduced as compared to the mice receiving the vehicle.

Another test deals with IC9-expressing T cells. Nature of the test: 6-hour and 48-hour post-rimiducid T cell death analysis. In kind it is cell-based, human. To be noted: for elimination of transduced T cells by AP1903: 1, 10 or 100 ng/mL; for annexin V staining of residual CAR^+ T cells: AP1903 6 hours; for annexin V staining of residual CAR+ cells: AP1903 48 hours. As for the experimental part:
On day 8 of culture, 1 million T cells from cultures that were either untransduced or transduced with one of the anti-SLAMF7 CARs cells were suspended at 1×10^6 T cells/mL in AIM V™ media (Invitrogen) plus 300 IU of interleukin-2. One million cells were added to each of 4 wells of a 12-well plate. A different concentration of AP1903 (MedChem Express, Princeton, N.J.) from was added to each well. AP1903 is also referred to as rimiducid. The concentrations of AP1903 evaluated were: 0, 1, 10, or 100 ng/mL.
Six hours and 48 hours after these cultures were set up, the cells were counted, washed, and stained with Protein L as described above. Next, the cells were washed twice with PBS, re-suspended in Annexin V binding buffer (BD Biosciences), and incubated with allophycocyanin-conjugated Annexin V (BD Biosciences) and 7AAD (BD Biosciences) for 15 minutes (mins) at room temp. The cells were immediately analyzed by flow cytometry.

Test [2] has as its system MM.1S human SLAMF7^+ multiple myeloma solid tumors. The test can be described thus: MM.1S solid tumor model in NSG mice, anti-tumor efficacy. In kind it is in vivo. Conditions: 2 million CAR^+ T cells per mouse, 5 mice per group (FIG. 17). As to the method:
as §1
FIGS. 16A-16B show a dose-titration of IC9-Luc90-CD828Z-expressing T cells. In this experiment, immunocompromised NSG mice were injected intradermally with 4×10^6 MM.1S cells to form a solid mass. Mice were then treated with a single infusion of 0.5×10^6, 2×10^6, or 8×10^6, IC9-Luc90-CD828Z-expressing T cells. […] The tumor volume curves end when the first mouse of a group was sacrificed.
MM.'S tumors were established in NSG mice as described in Example 9. FIGS. 17A-17B show results in which mice bearing MM.1S tumors were treated with T cells expressing one of 3 different CARs: IC9-Luc90-CD828Z (suicide gene+anti-SLAMF7 CAR), Luc90-CD828Z (anti-SLAMF7 CAR alone), or a negative-control anti-CD19 CAR Hu19-CD828Z. A 4th group was left untreated in both experiments. All groups included 5 mice. The CARP T cell dose was 2 million CARP T cells per mouse. There were 5 mice in all groups.

The next test relates to SLAMF7-K562. The test can be described thus: IFN-gamma ELISA, CAR T cells cultured overnight with SLAMF7-K562 target cells. Conditions: Table E; overnight culture. It counts as cell-based, human. The text has this:
(§2) MM.1S is a SLAMF7^+ multiple myeloma cell line that was obtained from American Type Culture Collection (ATCC). A549 is a BCMA-negative lung cancer cell line (ATCC). TC71 is a BCMA-negative sarcoma cell line. CCRF-CEM, 293T, and A549 are SLAMF7-negative cell lines (ATCC). COL0207, HepG2, U251, Panc10.05, and TC71 are […] that were kind gifts from Dr. Steven Rosenberg, National Cancer Institute. SLAMF7-K562 are K562 cells (ATCC) which were transduced with the gene for full-length SLAMF7. SLAMF7-RPMI are RPMI8226 cells (ATCC) which were transduced with the gene for full-length SLAMF7. NGFR-K562 are K562 cells which were transduced with the gene for low-affinity nerve growth factor (Kochenderfer et al., J. Immunother., 32(7): 689-702 (2009)). All of the human samples mentioned were obtained from patients enrolled in IRB-approved clinical trials at the National Cancer Institute.
(§3) One-hundred thousand SLAMF7^+ or SLAMF7-negative target cells were combined with 100,000 CAR-transduced T cells in duplicate wells of a 96 well round bottom plate in 200 µL of AIM V™ medium (Invitrogen) plus 5% human serum. The plates were incubated at 37° C. for 18-20 hours. Following the incubation, ELISAs (enzyme-linked immunosorbent assays) for IFNγ were performed by using standard methods.
(§4) The T cells columns indicate whether T cells were transduced with Luc90-CD828Z, Luc63-CD828Z, or were untransduced. The % CAR^+ in Table B-1 was determined by staining the T cells with Protein L. Except for the % CAR^+ column, all values are pg/mL of IFN-gamma. T cells that were either untransduced or transduced with one of the indicated CARs were cultured with target cells overnight and a standard IFN-gamma ELISA was performed on the culture supernatant.
(§5) All values are pg/mL of IFN-gamma. T cells that were either untransduced or transduced with one of the indicated CARs were cultured with target cells overnight, and a standard IFN-gamma ELISA was performed on the culture supernatant.
On the technique in general: An ELISA detects its analyte on a solid surface through an enzyme-linked reagent.

The next test relates to CCRF-CEM. Nature of the test: IFN-gamma ELISA, CAR T cells with CCRF-CEM target cells. It counts as cell-based, human. Conditions: Table E.
Excerpt: as §2, §3, §5

The test system of a further test is T cells only. Nature of the test: IFN-gamma ELISA, T cells only (no target cells). In kind it is cell-based, human. To be noted: Table E. As to the method: as §3, §4, §5
(§6) The values in the cells are pg/mL of IFN-gamma. T cells that were either untransduced or transduced with one of the indicated CARs were cultured with target cells overnight, and a standard IFN-gamma ELISA was performed on the culture supernatant. The concentrations of 0, 50, or 200 ng/mL at the top of each column indicates the concentration of soluble SLAMF7 added to all T cell plus target cell overnight cultures in that column. The soluble SLAMF7 was added at the beginning of the overnight culture.

The subject of another test is NGFR-K562. The test can be described thus: IFN-gamma ELISA, CAR T cells with NGFR-K562 target cells. It counts as cell-based, human. Conditions: Table E.
Excerpt: as §2, §3, §4, §5, §6

In another test the test system is MM.1S. The test can be described thus: IFN-gamma ELISA, CAR T cells with MM.1S target cells. In kind it is cell-based, human. To be noted: Table E.
Excerpt: as §2, §3, §5

The test system of the next test is SLAMF7^+ MM.1S cells. Nature of the test: Cytotoxicity assay (4 hours, relative to CCRF-CEM cells). To be noted: MM.1S relative to control CCRF-CEM cells (FIG. 8A). In kind it is cell-based, human. As to the method: Cytotoxicity assays were conducted as previously described (see Kochenderfer et al., J. Immunother., 32(7): 689-702 (2009)). Cytotoxicity was measured by comparing survival of SLAMF7^+ target cells relative to the survival of negative-control CCRF-CEM cells. Both of these cell types were combined in the same tubes with CAR-transduced T cells. CCRF-CEM negative control cells were labeled with the fluorescent dye 5-(and -6)-(((4-chloromethyl)benzoyl)amino) tetramethylrhodamine (CMTMR) (Invitrogen), and SLAMF7^+ target cells were labeled with CFSE. Cocultures were set up in sterile 5 mL test tubes (BD Biosciences) in duplicate at multiple T cell to target cell ratios. The target cells contained in the tubes were 50,000 SLAMF7^+ target cells along with 50,000 CCRF-CEM negative-control cells. The cultures were incubated for 4 hours at 37° C. Immediately after the incubation, 7AAD (7-amino-actinomycin D) (BD Biosciences) was added, and flow cytometry acquisition was performed. For each T cell plus target-cell culture, the percent survival of SLAMF7^+ target cells was determined by dividing the percent live SLAMF7^+ cells by the percent live CCRF-CEM negative control cells. The corrected percent survival of SLAMF7^+ target cells was calculated by dividing the percent survival of SLAMF7^+ target cells in each T cell plus target cell culture by the ratio of the percent live SLAMF7^+ target cells to percent live CCRF-CEM negative-control cells in tubes containing only SLAMF7^+ target cells and CCRF-CEM cells without effector T cells. This correction was necessary to account for variation in the starting cell numbers and for spontaneous target cell death. Cytotoxicity was calculated as follows: the percent cytotoxicity of […] target cells=100−corrected percent survival of SLAMF7^+ target cells.

In the next test the test system is SLAMF7-K562 target cells. Nature of the test: CFSE proliferation assay. In kind it is cell-based, human. To be noted: SLAMF7-K562 versus NGFR-K562 target cells, 4 days (FIGS. 8B, 8C). An excerpt:
Cocultures were set up in 24-well plates. Target cells included in cocultures were either 0.5×10^6 irradiated SLAMF7-K562 cells or 0.5×10^6 irradiated NGFR-K562 cells. The cocultures also included 1×10^6 T cells from cultures that had been transduced with either […]. The T cells were labeled with carboxy fluorescein diacetate succinimidyl ester (CFSE, Invitrogen) as previously described. The medium used in the cocultures was AIM V™ (Invitrogen) plus 5% human AB serum. IL-2 was not added to the medium. Four days after initiation, the live cells in each coculture were counted with trypan blue for dead cell exclusion, and flow cytometry was performed by Protein L staining.

Where [3] appears, read: T cells transduced with IC9-Luc90-CD828Z.
[4] abbreviates: T cells transduced with Luc90-CD828Z-IC9.

As for `CC[C@H](C(=O)N1CCCC[C@H]1C(=O)O[C@H](CCc1ccc(OC)c(OC)c1)c1cccc(OCC(=O)NCCNC(=O)COc2cccc([C@@H](CCc3ccc(OC)c(OC)c3)OC(=O)[C@@H]3CCCCN3C(=O)[C@@H](CC)c3cc(OC)c(OC)c(OC)c3)c2)c1)c1cc(OC)c(OC)c(OC)c1` [AP1903], in [1] (2×10^6 IC9-Luc90-CD828Z T cells, AP1903 5 mg/kg intraperitoneally (FIG. 18)), the “tumor outcome in mice receiving AP1903 after CAR T cells” value was “progressive tumors”. Besides, the “levels of IC9-Luc90-CD828Z CAR T cells in mice” value in [1] (AP1903 5 mg/kg compared to vehicle) is “reduced”. Further, the “elimination of transduced T cells by AP1903” value with IC9-expressing T cells (T cells transduced with IC9-Luc90-CD828Z, 6 hours) is given as “most transduced cells exposed to either 1, 10, or 100 ng/mL of AP1903 were eliminated”; with IC9-expressing T cells (T cells transduced with IC9-Luc90-CD828Z, 48 hours), “most transduced cells exposed to either 1, 10, or 100 ng/mL of AP1903 were eliminated”; in the test on IC9-expressing T cells (T cells transduced with Luc90-CD828Z-IC9, 6 hours), “most transduced cells exposed to either 1, 10, or 100 ng/mL of AP1903 were eliminated”; in the test with IC9-expressing T cells (T cells transduced with Luc90-CD828Z-IC9, 48 hours) it was “most transduced cells exposed to either 1, 10, or 100 ng/mL of AP1903 were eliminated”. In addition, the “annexin V staining of residual CAR^+ T cells” value in the test with IC9-expressing T cells (setting [3]) and with IC9-expressing T cells (setting [4]) was “most residual CAR^+ T cells in the AP1903-treated cultures were annexin V^+” in each case. The “annexin V staining of residual CAR+ cells” value with IC9-expressing T cells (setting [3]) and in the test with IC9-expressing T cells (setting [4]) was “most residual CAR+ cells were annexin V^+” each time. In addition, the “dependence of elimination on AP1903 concentration” value with IC9-expressing T cells (clinically-relevant range of concentrations tested (1-100 ng/mL)) is reported as “did not depend on the concentration of AP1903”.
As for “Hu19-CD828Z: negative-control anti-CD19 CAR [reference compound]”, the anti-tumor activity result in test [2] is reported as “progressive tumors”.
As to “Luc90-CD828Z-IC9: CAR plus suicide gene construct (SEQ ID NO: 30): Luc90-CD828Z, T2A, IC9 suicide gene 3′ to the CAR”, the “IFN-gamma, SLAMF7-K562” value with SLAMF7-K562 is on record as 2249 pg/mL. The “IFN-gamma, CCRF-CEM” value with CCRF-CEM is 42 pg/mL. Also, in the test on T cells only, the “IFN-gamma, T-cells Alone” value is recorded as 39 pg/mL. Besides, the “IFN-gamma, NGFR-K562” value in the test on NGFR-K562 is reported as 33 pg/mL. The “IFN-gamma, MM.1S” value in the test on MM.1S is given as 1333 pg/mL. Moreover, the “killing of SLAMF7^+ target cells” value in the test on SLAMF7^+ MM.1S cells is “specifically killed the SLAMF7^+ MM.1S cells”. For the same compound, the “proliferation (CFSE dilution)” value with SLAMF7-K562 target cells is “proliferated more”.
